The assay concerns α7 integrin (LacZ reporter in α7LacZ+/− myoblasts). In words: qHTS of the LOPAC library and MLSMR (online screen, α7LacZ+/− myoblasts). The settings on record: for activation at 0.307 µM / activation at 1.53 µM / activation at 7.66 µM / activation at 38.3 µM / Emax / EC50: Mus musculus, Myoblast; for activation at 0.307 µM: read-out: Activity at 0.307 uM [%] **; for activation at 1.53 µM: read-out: Activity at 1.530 uM [%] **; for activation at 7.66 µM: read-out: Activity at 7.660 uM [%] **; for activation at 38.3 µM: read-out: Activity at 38.30uM [%] **; for EC50: read-out: Fit LogAC50 (converted). For orientation: qHTS replaces the single test concentration by a dilution series.

Setting [1] is: 48 h, read-out: Fit Infinite Activity [%].

Experimental findings from patent publication US9980943B2, “Methods of treating muscular dystrophy” (BOARD OF REGENTS OF THE NEVADA SYSTEM OF HIGHER EDUCATION, …, priority 2013, dated 2018) are described below.

Like-named read-outs stand apart in the source and are kept apart here.

Consider `COc1ccccc1-c1coc2c3c(ccc2c1=O)OC1CCCCN1C3` (stereo not drawn) [Compound 3], for which the EC50 is 2.24 µM. Besides, where the note is “48 h”, the activation at 0.307 µM is -34.2%, the activation at 1.53 µM came out at 9.57%, the activation at 7.66 µM turned out to be 154% and the activation at 38.3 µM was found to be 159%. The Emax under setting [1] stood at 158%.

As to `O=C(Nc1cc(Br)ccc1O)C1CC(c2ccccc2Cl)=NO1` (stereo not drawn) [Compound 108], the EC50 was 12.6 µM. In addition, under “48 h”, the activation at 0.307 µM amounted to 2.03%, the activation at 1.53 µM came out at 3.14%, the activation at 7.66 µM turned out to be 15.3% and the activation at 38.3 µM was found to be 141%. The Emax under setting [1] stood at 142%. In addition, the Emax (read-out: Max Response [%]) was 141%.

With `O=C(Cn1nc(-c2ccc(Cl)cc2)ccc1=O)N1CCC2(CC1)OCCO2` [Compound 221], where the note is “48 h”, the activation at 0.307 µM was 6.38%, the activation at 1.53 µM was found to be 7.87%, the activation at 7.66 µM was found to be 16.8% and the activation at 38.3 µM worked out at 66.1%. Further, the Emax under setting [1] worked out at 66.5%. Moreover, the Emax (read-out: Max Response [%]) came to 66.1%.

Take `O=C(Nc1ccc(N2CCN(C(=O)c3ccccc3F)CC2)cc1)c1cncc(Br)c1` [Compound 144]: where the note is “48 h”, the activation at 0.307 µM came out at 8.54%, the activation at 1.53 µM turned out to be 11.1%, the activation at 7.66 µM is 20.4% and the activation at 38.3 µM was determined as 103%. The Emax under setting [1] was determined as 104%. In addition, the Emax (read-out: Max Response [%]) worked out at 103%.

Turning to `O=C(CNC(=O)c1cccc(F)c1)N/N=C/c1cc(Br)ccc1OCc1ccccc1` [Compound 216], the EC50 is 10 µM. Further, for the setting “48 h”, the activation at 0.307 µM was 8.28%, the activation at 1.53 µM was found to be 20.8%, the activation at 7.66 µM amounted to 44% and the activation at 38.3 µM came to 71.7%. Besides, the Emax under setting [1] amounted to 94.4%. For the same molecule, the Emax (read-out: Max Response [%]) turned out to be 71.7%.

`COc1ccc(N2CCN(CCC3Oc4cc([N+](=O)[O-])ccc4NC3=O)CC2)cc1` (stereo not drawn) [Compound 194]: the Score worked out at 42 and the EC50 was 8.91 µM. In addition, for the setting “48 h”, the activation at 0.307 µM was -2.43%, the activation at 1.53 µM is 0%, the activation at 7.66 µM came to 30.6% and the activation at 38.3 µM is 68%. For the same molecule, the Emax under setting [1] was determined as 73.9%. The Emax (read-out: Max Response [%]) stood at 68%.

For the molecule `CCOC(=O)C1CCCN(C(=O)CNS(=O)(=O)c2ccc(Br)s2)C1` (stereo not drawn) [Compound 33], the EC50 is 2 µM. In addition, where the note is “48 h”, the activation at 0.307 µM was -41.8%, the activation at 1.53 µM was -14.3%, the activation at 7.66 µM turned out to be 17% and the activation at 38.3 µM was 31.1%. Further, under setting [1], the Emax stood at 33.2%.

For the molecule `COc1cc2c(cc1NC(=O)Cc1ccc(C)cc1)oc1ccccc12` [Compound 5], the EC50 was 1.12 µM. Besides, under “48 h”, the activation at 0.307 µM was -1.8%, the activation at 1.53 µM is 58.4%, the activation at 7.66 µM was determined as 87.2% and the activation at 38.3 µM is 687%. For the same molecule, the Emax under setting [1] came to 87.4%.

On to `Cc1ccc(-c2csnn2)cc1` [Compound 170], for which the EC50 was 10 µM. For the same molecule, under “48 h”, the activation at 0.307 µM was found to be 2.36%, the activation at 1.53 µM came to 5.33%, the activation at 7.66 µM amounted to 22.2% and the activation at 38.3 µM was determined as 87.6%. Under setting [1], the Emax was found to be 87.8%. Moreover, the Emax (read-out: Max Response [%]) came to 87.6%.

Consider `COc1cc(CNCc2ccc(C(=O)O)cc2)ccc1OCc1ccc(F)cc1` [Compound 57], for which the EC50 was 4.47 µM. Under “48 h”, the activation at 0.307 µM amounted to 1%, the activation at 1.53 µM is 14.6%, the activation at 7.66 µM is 82.2% and the activation at 38.3 µM came to 113%. For the same molecule, the Emax under setting [1] turned out to be 115%. For the same molecule, the Emax (read-out: Max Response [%]) amounted to 113%.

Take `CN(C)S(=O)(=O)c1cccc(C(=O)Nc2ccc3c(c2)CCC3)c1` [Compound 8]: the EC50 was 2.82 µM. Besides, where the note is “48 h”, the activation at 0.307 µM is -15.4%, the activation at 1.53 µM is -10.6%, the activation at 7.66 µM worked out at 96.4% and the activation at 38.3 µM stood at 94.3%. Also, under setting [1], the Emax turned out to be 96%.

For `COc1ccc(CCNC(=O)c2nn(C)c3c2CS(=O)(=O)c2ccccc2-3)cc1OC` [Compound 74], the EC50 was 4.47 µM. Under “48 h”, the activation at 0.307 µM was -22.8%, the activation at 1.53 µM was -9.73%, the activation at 7.66 µM is 56.7% and the activation at 38.3 µM was 84.2%. Moreover, under setting [1], the Emax was 86.2%. Further, for the setting “read-out: Max Response [%]”, the Emax turned out to be 84.2%.

On to `COc1ccc(C(=O)CN2CCCCC2)cc1` [Compound 181], for which, for the setting “48 h”, the activation at 0.307 µM was determined as 12.4%, the activation at 1.53 µM was determined as 12.9%, the activation at 7.66 µM worked out at 18.9% and the activation at 38.3 µM turned out to be 92.8%. Under setting [1], the Emax turned out to be 93%. For the same molecule, the Emax (read-out: Max Response [%]) was 92.8%.

As to `COc1ccccc1C(=O)NCCOc1ccc(C(C)(C)C)cc1` [Compound 168], where the note is “48 h”, the activation at 1.53 µM was found to be 0%, the activation at 7.66 µM is 35.8% and the activation at 38.3 µM is 77.8%. The Emax under setting [1] worked out at 82.9%. The Emax (read-out: Max Response [%]) was 77.8%.

`CC(C)CC1NC(=O)N(CC(=O)N2c3ccccc3NC(=O)C2(C)C)C1=O` (stereo not drawn) [Compound 21]: the EC50 is 5.62 µM. Besides, where the note is “48 h”, the activation at 0.307 µM came out at 2.86%, the activation at 1.53 µM came to 0%, the activation at 7.66 µM amounted to 75.6% and the activation at 38.3 µM was 93.3%. In addition, under setting [1], the Emax worked out at 93.5%.

Take `O=Cc1ccc(C(=O)OCC(=O)N2CCCC2)cc1` [Compound 35]: the EC50 is 2.51 µM. In addition, under “48 h”, the activation at 0.307 µM was 0%, the activation at 1.53 µM worked out at 12%, the activation at 7.66 µM was determined as 71.5% and the activation at 38.3 µM is 71.8%. The Emax under setting [1] stood at 72.6%.

Regarding `CNC(=O)/C(=C\c1cccc(Oc2ccccc2)c1)NC(=O)c1ccccc1` [Compound 211], for the setting “48 h”, the activation at 0.307 µM is 0.23%, the activation at 1.53 µM stood at 11.6%, the activation at 7.66 µM is 43% and the activation at 38.3 µM worked out at 87.9%. Under setting [1], the Emax came to 110%. Also, the Emax (read-out: Max Response [%]) is 87.9%.

As to `Cc1cc(N2CCOCC2)nc2ccc(N/C(S)=N/Cc3ccc4c(c3)OCO4)cc12` [Compound 122], the EC50 was 10 µM. Besides, where the note is “48 h”, the activation at 0.307 µM is 2.5%, the activation at 1.53 µM worked out at 11.5%, the activation at 7.66 µM came to 54% and the activation at 38.3 µM was 107%. Further, the Emax under setting [1] was found to be 128%. In addition, the Emax (read-out: Max Response [%]) was 107%.

Turning to `O=Cc1cnc(N2CCCCC2)s1` [Compound 191], where the note is “48 h”, the activation at 0.307 µM was -18.1%, the activation at 1.53 µM was -20%, the activation at 7.66 µM is -4.2% and the activation at 38.3 µM was 96%. Further, the Emax under setting [1] amounted to 96.3%. The Emax (read-out: Max Response [%]) amounted to 96%.

Turning to `CCOc1ccc2ccccc2c1C1NC(=O)N(C)C(C)=C1C(=O)OCCOC` (stereo not drawn) [Compound 76], the EC50 is 6.31 µM. Further, for the setting “48 h”, the activation at 0.307 µM was -5.81%, the activation at 1.53 µM was 5.65%, the activation at 7.66 µM was found to be 55.1% and the activation at 38.3 µM was 97%. For the same molecule, the Emax under setting [1] came to 106%. Also, the Emax (read-out: Max Response [%]) was 97%.

In the case of `COC(=O)Cc1c(O)ccn(Cc2ccc3c(c2)OCO3)c1=O` [Compound 80], the EC50 was 10 µM. Further, where the note is “48 h”, the activation at 0.307 µM was -4.78%, the activation at 1.53 µM was 4.56%, the activation at 7.66 µM turned out to be 65.9% and the activation at 38.3 µM came out at 146%. The Emax under setting [1] turned out to be 169%. Moreover, the Emax (read-out: Max Response [%]) turned out to be 146%.

With `C/N=C(\S)N1CCC(NC(=O)C(Cc2ccc(F)cc2)NC(C)=O)CC1` (stereo not drawn) [Compound 82], the EC50 is 3.16 µM. In addition, for the setting “48 h”, the activation at 0.307 µM is 0%, the activation at 1.53 µM came to 23.1%, the activation at 7.66 µM is 63.7% and the activation at 38.3 µM amounted to 84.7%. In addition, under setting [1], the Emax came to 90%. For the same molecule, the Emax (read-out: Max Response [%]) turned out to be 84.7%.

Consider `COCc1c(C(=O)N/N=C(\C)c2ccc(OCc3ccccc3)cc2)nnn1-c1nonc1N` [Compound 143], for which the EC50 is 10 µM. Further, under “48 h”, the activation at 0.307 µM is 4.28%, the activation at 1.53 µM is 4.88%, the activation at 7.66 µM was 22.4% and the activation at 38.3 µM amounted to 80.8%. In addition, the Emax under setting [1] was 81.3%. Moreover, the Emax (read-out: Max Response [%]) turned out to be 80.8%.

Turning to `O=C1SC(Cc2ccccc2)C(=O)N1c1ccccc1` (stereo not drawn) [Compound 50], the EC50 was 7.94 µM. Moreover, where the note is “48 h”, the activation at 0.307 µM is 7.9%, the activation at 1.53 µM was determined as 9.4%, the activation at 7.66 µM was 94.1% and the activation at 38.3 µM stood at 176%. The Emax under setting [1] was found to be 186%.

`CCc1ccc(Sc2cc(C(=O)NCCN3CCOCC3)c3ccccc3n2)cc1` [Compound 214]: under “48 h”, the activation at 0.307 µM worked out at 13.2%, the activation at 1.53 µM was found to be 16.1%, the activation at 7.66 µM was 43.9% and the activation at 38.3 µM is 101%. The Emax under setting [1] turned out to be 108%. For the same molecule, the Emax (read-out: Max Response [%]) came out at 101%.

`C/C(=N\OCC(=O)OC(C)C(=O)Nc1ccc(C(N)=O)cc1)c1ccc2c(c1)OCO2` (stereo not drawn) [Compound 70]: the EC50 was 4.47 µM. Also, for the setting “48 h”, the activation at 0.307 µM was -15.5%, the activation at 1.53 µM was 4.11%, the activation at 7.66 µM is 57.2% and the activation at 38.3 µM is 89.5%. Besides, the Emax under setting [1] stood at 96.1%. Further, where the note is “read-out: Max Response [%]”, the Emax was found to be 89.5%.

For `COc1cc2c(cc1OC)C(NC(=O)C(F)(F)F)C/C2=N\O` (stereo not drawn) [Compound 193], under “48 h”, the activation at 0.307 µM was found to be 3.74%, the activation at 1.53 µM came to 2%, the activation at 7.66 µM stood at 17.9% and the activation at 38.3 µM was 91.5%. The Emax under setting [1] came out at 92.3%. Also, the Emax (read-out: Max Response [%]) was determined as 91.5%.
